Laboratory results as given in patent publication US10729659B2, “Nanogel-mediated drug delivery” (The Cleveland Clinic Foundation, priority 2012, dated 2020).
Converted amounts (≈) assume the structure as drawn.

Assays:
[1] = cited from earlier work
MCF-7/Adr cells [2] = assay: Cell viability assay, DAC solution vs DAC nanogel; format: cell-based; details: Homo sapiens, NCI/ADR-RES, read-out: IC50 value at day 12 post drug treatment
Description: Cytotoxicity of DAC in solution vs. DAC loaded nanogel was compared at day 5, 10 or 12 post drug additions in drug resistant cells. In a typical experiment; cells were seeded at 3000 cells/well in 96 well plates. 24 h post seeding, 0.1 mL cell culture media containing different concentrations of DAC solution or DAC nanogel was added and incubated for 3 d. Post incubation; cells were washed with 1×-DPBS and then replaced with drug free medium at every 48 h until cell viability was measured via an MTS assay kit (Promega CellTiter 96 AQueous Promega, Madison, Wis.). The effects of the drug on cell proliferation were calculated as the percentage cell growth vs. growth of control cells that received no drug treatment.
Cytotoxicity of DAC in solution vs. different DAC loaded nanogel formulations was compared at day 5, 10 or 12 post drug additions in drug resistant cells. In a typical experiment, cells were seeded at 3000 cells/well in 96 well plates. Twenty four hr post seeding, 0.1 mL cell culture media containing different concentrations of DAC solution or DAC nanogel was added and incubated for 3 d. […] Cell viability was measured using MTS (Promega CellTiter 96 AQueous Promega, Madison, Wis.). The effects of the drug on cell proliferation were calculated as the percentage cell growth vs. growth of control cells that received no drug treatment.

MCF-7/Adr cells [3] = assay: Cellular uptake of dox; format: cell-based, human; details: DAC 50 ng/mL 24 h, then dox 1 μg/mL; 15 min to 12 h
Description: Drug resistant breast cancer cells were seeded in 24 well plates (1.2×10^6 cells/well). Post 48 h seeding, cells were pre-treated with DAC (50 ng/mL; 24 h); and then incubated with fixed concentration of dox (1 μg/mL) for indicated time points. Post drug incubation cell lysates in RIPA buffer was collected and lyophilized. Dox was extracted from lyophilized cell lysates using methanol as the solvent and analyzed by HPLC.

MCF-7/Adr cells [4] = assay: Microarray gene expression analysis; format: cell-based, human; details: decitabine vs untreated MCF-7/Adr
Description: Microarray analysis was performed using the standard protocol provided by IlluminaCorporation (San Diego, Calif.). […] 20 μL of nuclease free water containing total RNA at the concentration of 100 ng/μL was stored at −80° C. Approximately […] of total RNA was subjected to gene expression array study using Illuminahuman 6v2 chip. The array-hybridization and scanning of array images were performed at the Cleveland Clinic Genomics Core. The microarray scanned image and intensity files were imported into Illumina Bead Studio Analysis software version 3.2.6 (Illumina Inc.). Error models were applied and ratios were built for each treatment array versus its respective vehicle control. For qPCR analysis, RNA isolated from treated and untreated cells were converted into cDNA using Mo-MLV reverse transcriptase (Promega Inc., USA) according to manufacturers' instructions. Taqman expression primers (Applied Biosystems Inc., USA) and ABI PRISM Sequence Detection Instrument 7700 (Applied Biosystems Inc., USA) were used for real-time reverse transcription-PCR (RT-PCR). Fold change in target genes was calculated about the human glyceraldehyde 3-phosphate dehydrogenase (GAPDH).

[5] = test system: MCF-7/Adr xenograft tumor; assay: In vivo anti-tumor efficacy, drug-resistant breast cancer model; design: species or system athymic nude mice; details: single intravenous dose 15 mg/kg; vs control nanogel, DAC in solution
Description: A murine drug-resistant breast cancer model (MCF-7/ADR) was used to investigate the anti-tumor efficacy of DAC nanogels. To establish tumors, 1×10^6 MCF-7/ADR cells were suspended in 100 μL of matrigel (BD biosciences San Jose, Calif.) and injected in the mammary fat pad via a 27 G ½ gauge needle. Tumor nodules were allowed to grow to about 300 mm3 prior to receiving DAC nanogels (drug dose 15 mg/kg) or its respective controls (DAC in solution or Control Nanogels) intravenously. Post single treatment, tumor dimensions were measured with a digital caliper at regular time intervals and the tumor volume was calculated using the formula [length×(width)^2]/2. […] Data were expressed as mean±SEM (n=3 to 6). Variances in tumor growth were determined using one-way ANOVA test followed by Tukey test using GraphPad Prism version 4.0 for Windows (p<0.05).
In vivo anti-tumor efficacy of DAC nanogels in athymic nude mice bearing MCF-7/Adr xenograft tumor: To establish tumors, 1×10^6 MCF-7/Adr cells were suspended in 100 μL of matrigel (BD biosciences San Jose, Calif.) and injected in the mammary fat pad via a 27 G ½ gauge needle. […] Tumor dimensions were measured with a digital caliper at regular time interval and the tumor volume was calculated using the formula [length×(width)2]/2. Data were expressed as mean±SEM (n=3 to 6). […]

Nc1ncn([C@H]2C[C@H](O)[C@@H](CO)O2)c(=O)n1 [DAC, 5-aza-2′-deoxycytidine]
In vivo half life [1]: 10 to 30 min
Plasma protein binding ([1]; in vivo): poor plasma protein binding
IC50 (MCF-7/Adr cells [2]): 0.434 µg/mL (≈ 1.9 µM)
Uptake of dox in DAC pre-treated cells vs dox alone (MCF-7/Adr cells [3]): higher increase in uptake of dox
Fold Change 48 h (MCF-7/Adr cells [4]; gene CDKN1A (p21, Cip1)): 3.6 fold
Fold Change 48 h (MCF-7/Adr cells [4]; gene CST6): 52.8 fold
Fold Change 48 h (MCF-7/Adr cells [4]; gene DPEP3): −87.8 fold
Fold Change 48 h (MCF-7/Adr cells [4]; gene DPPA2): −11.2 fold
Fold Change 48 h (MCF-7/Adr cells [4]; gene GAGE2): 1754.4 fold
Fold Change 48 h (MCF-7/Adr cells [4]; gene GAGE5): 1358.9 fold
Fold Change 48 h (MCF-7/Adr cells [4]; gene GAGE6): 813.8 fold
Fold Change 48 h (MCF-7/Adr cells [4]; gene GAGE7B): 907.8 fold
Fold Change 48 h (MCF-7/Adr cells [4]; gene GAGE8): 411.0 fold
Fold Change 48 h (MCF-7/Adr cells [4]; gene IL23A (p19)): 3.02 fold
Fold Change 48 h (MCF-7/Adr cells [4]; gene MAGEA4): 4.7 fold
Fold Change 48 h (MCF-7/Adr cells [4]; gene MMP9): −215.1 fold
Fold Change 48 h (MCF-7/Adr cells [4]; gene PAGE 4): 11.6 fold
Fold Change 48 h (MCF-7/Adr cells [4]; gene PAGE5): 25.4 fold
Fold Change 48 h (MCF-7/Adr cells [4]; gene PAK3): 2.7 fold
Fold Change 48 h (MCF-7/Adr cells [4]; gene PNMA5): −19.8 fold
Fold Change 48 h (MCF-7/Adr cells [4]; gene PYCARD): 23.6 fold
Fold Change 48 h (MCF-7/Adr cells [4]; gene RASD1): 35.6 fold
Fold Change 48 h (MCF-7/Adr cells [4]; gene SOCSI): 28.2 fold
Fold Change 48 h (MCF-7/Adr cells [4]; gene SOX15): 10.2 fold
Fold Change 48 h (MCF-7/Adr cells [4]; gene STK31): 1663.3 fold
Fold Change 48 h (MCF-7/Adr cells [4]; gene TFF2): −16.8 fold
Fold Change 48 h (MCF-7/Adr cells [4]; gene THY1): 103.1 fold
Fold Change 48 h (MCF-7/Adr cells [4]; gene TMEM101): 33.7 fold
Fold Change 48 h (MCF-7/Adr cells [4]; gene ZFP42): −22.5 fold
Tumor growth / tumor size [5]: not different
